In one assay the target is T1, PDE2A (Homo sapiens, UniProt O00408).
T1 construct: purchased Eurofins Panlabs Discovery Services Taiwan, Ltd. (contract assay); host or cells: insect Sf9 cells
As to the kind of experiment: PDE enzyme  assay, PDE2A. The class given is biochemical. As to the method:
(§1) Enzyme assays for various subtypes of PDE (Table 1 and Figure 4) were conducted by Eurofins Panlabs Discovery Services Taiwan, Ltd. (New Taipei City, Taiwan). In the assays, five or six concentrations of nobiletin over five or six orders of magnitude were examined in experiments conducted in duplicate to determine the IC50 (concentration of nobiletin exerting half-maximal inhibition of control-specific activity). IC50 values were determined by nonlinear least squares regression analysis using MathIQTM (ID Business Solutions Ltd., Woking, UK). FAM-cAMP, FAM-cGMP (0.1 μM), and 100 μM [^3H]cGMP + cGMP were used for the substrate in the human recombinant insect Sf9 cells or Bovine retinal rod outer segments depending on the PDE subtype. The spectrofluorometric quantitation of fluorescein-AMP-IMAP, fluorescein-GMP-IMAP, or [^3H] guanosine was used depending on the PDE subtype. A known […] of each PDE was used as the positive control.

The target of another assay is T2, PDE4A1A (Homo sapiens, UniProt P27815).
T2 construct: purchased Eurofins Panlabs Discovery Services Taiwan, Ltd. (contract assay); host or cells: insect Sf9 cells
The assay is described as follows: PDE enzyme (kinase) assay, PDE4A1A. The class given is biochemical. As to the method: as §1
(§2) Figure 4 PDE kinase assays and the acute clock gene expression changes by PDE4 inhibitor or ROR α/γ agonist. (A) Inhibitory effect of nobiletin on PDE4A1, 4B1, and 10A2. Various concentrations of nobiletin (1–100 μM) were used for IC50 determination (Table 1). Values represent the mean of two experiments. Positive controls were rolipram for PDE4A1 and 4B1 and papaverine for PDE10A2. […]

For the next assay, the target named is T3, PDE4B1 (Homo sapiens, UniProt Q07343).
T3 construct: purchased Eurofins Panlabs Discovery Services Taiwan, Ltd. (contract assay); host or cells: insect Sf9 cells
As to the kind of experiment: PDE enzyme (kinase) assay, PDE4B1. The format is biochemical. The protocol: as §1, §2

Assay [1] concerns PER2::LUC rhythm in peripheral tissues (kidney, liver, submandibular gland). As to the kind of experiment: In vivo bioluminescence imaging of peripheral PER2::LUC rhythm. Particulars: 100 mg/kg i.p., 3 days. Further details: species or system mice. As to the method: Male C57BL/6J mice (7 weeks old) were purchased from Charles River Japan (Kanagawa, Japan) and used for the serum hormone assay and RT-PCR. Male ICR mice were purchased from Tokyo Laboratory Animals Science Co., Ltd. (Tokyo, Japan), and female PERIOD2::LUCIFERASE (PER2::LUC) knock-in mice (ICR background) bred at Waseda University were used for blood glucose measurements and in vivo imaging assays, respectively. The mice were all housed under conditions of controlled temperature (23 °C ± 3 °C), humidity (50% ± 20%), and lighting (lights on from 07:00 to 19:00 at Taisho Pharmaceutical Co., Ltd. or from 08:00 to 20:00 at Waseda University). In the 24 h cycle, Zeitgeber time 0 (ZT0) was designated as the time when the lights were turned on, and ZT12 was designated as the time when the lights were turned off. All the mice were given access to food and tap water ad libitum, and nobiletin (10–100 mg/kg; purchased from FUJIFILM Wako Pure Chemical Corporation, Osaka, Japan) was administered by intraperitoneal (i.p.) injection in the vehicle (10 mL/kg body weight) containing 0.5% carboxymethyl cellulose (CMC). Rolipram (PDE4 inhibitor, FUJIFILM Wako Pure Chemical Corporation) and SR1078 (RORα/γ agonist, FUJIFILM Wako Pure Chemical Corporation) were also used for the experiment at 10 mg/kg in 0.5% CMC [12]. Mice were euthanized by rapid decapitation for whole blood samples.
An in vivo imaging system (IVIS) (Caliper Life Sciences, Hopkinton, MA, USA) was used to monitor the PER2::LUC activity rhythm waveform in the peripheral tissues (kidney, liver, and submandibular gland) of the mice. A previously developed protocol and analytical method to monitor bioluminescence oscillations in peripheral tissues was used. Briefly, the mice were anesthetized with isoflurane (FUJIFILM Wako Pure Chemical Corporation, Osaka, Japan) and enriched with oxygen. Mice were anesthetized and injected subcutaneously on the back and near the neck with D-luciferin potassium salt (FUJIFILM Wako Pure Chemical Corporation, Osaka, Japan) at a dose of 15 mg/kg body weight. Images were taken using an IVIS, in the dorsal-up position for the kidney 8 min after injection and in the ventral-up position for the liver and the submandibular gland 10 min after injection. Images were obtained six times/day at 4 h intervals (ZT3, 7, 11, 15, 19, and 23) (Figure 1 and Figure 2). The mice were returned to their home cages after each imaging procedure and quickly recovered from isoflurane anesthesia. Bioluminescence emitted from the kidneys and liver was calculated automatically using Living Image 3.2 software (Caliper Life Sciences). The average photon/min value for the six time points from each day was designated as 100%, and the bioluminescence rhythm for the entire day was expressed as a percentage of each set of six time points for individual organs. The peak phase and amplitude of the normalized data were determined using a single cosinor procedure program (Acro.exe version 3.5 [14]).
Figure 1 Experimental protocol for in vivo imaging. PER2::LUC female mice were treated with control (0.5% CMC) or nobiletin (100 mg/kg) at the same time points (ZT0, 4, 8, 12, 16, or 20) for three consecutive days, and then measured for peripheral clocks by in vivo whole-body imaging to examine phase–response curves (n = 4–5 in each).
Figure 2 Time-of-day dependence of peripheral PER2::LUC changes in nobiletin injection. (A) Representative photo images of in vivo PER2::LUC bioluminescence in the kidney, liver, and submandibular gland (sab gla). (B) Waveforms of PER2::LUC rhythm in each tissue at each treatment time. (C,D) Phase–response curves or amplitude–response curves of nobiletin injections in peripheral PER2::LUC rhythm. […]

T2 sequence (P27815 1-647 isoform P27815-4): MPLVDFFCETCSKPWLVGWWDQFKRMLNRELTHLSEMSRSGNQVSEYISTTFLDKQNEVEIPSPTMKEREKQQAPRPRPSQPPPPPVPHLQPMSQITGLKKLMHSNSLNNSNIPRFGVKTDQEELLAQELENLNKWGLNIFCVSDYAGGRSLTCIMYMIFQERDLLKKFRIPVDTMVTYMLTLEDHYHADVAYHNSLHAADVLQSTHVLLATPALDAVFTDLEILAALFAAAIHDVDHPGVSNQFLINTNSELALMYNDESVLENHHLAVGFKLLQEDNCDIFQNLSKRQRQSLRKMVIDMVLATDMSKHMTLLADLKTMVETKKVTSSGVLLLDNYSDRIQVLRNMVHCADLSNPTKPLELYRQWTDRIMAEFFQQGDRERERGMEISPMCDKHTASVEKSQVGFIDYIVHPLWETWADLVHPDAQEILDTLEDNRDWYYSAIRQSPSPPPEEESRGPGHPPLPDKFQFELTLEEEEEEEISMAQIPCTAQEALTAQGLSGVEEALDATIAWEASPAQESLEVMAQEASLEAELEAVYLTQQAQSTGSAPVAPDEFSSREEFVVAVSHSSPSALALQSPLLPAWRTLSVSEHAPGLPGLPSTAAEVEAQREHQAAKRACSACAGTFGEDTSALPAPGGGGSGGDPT
T3 sequence (Q07343 whole entry): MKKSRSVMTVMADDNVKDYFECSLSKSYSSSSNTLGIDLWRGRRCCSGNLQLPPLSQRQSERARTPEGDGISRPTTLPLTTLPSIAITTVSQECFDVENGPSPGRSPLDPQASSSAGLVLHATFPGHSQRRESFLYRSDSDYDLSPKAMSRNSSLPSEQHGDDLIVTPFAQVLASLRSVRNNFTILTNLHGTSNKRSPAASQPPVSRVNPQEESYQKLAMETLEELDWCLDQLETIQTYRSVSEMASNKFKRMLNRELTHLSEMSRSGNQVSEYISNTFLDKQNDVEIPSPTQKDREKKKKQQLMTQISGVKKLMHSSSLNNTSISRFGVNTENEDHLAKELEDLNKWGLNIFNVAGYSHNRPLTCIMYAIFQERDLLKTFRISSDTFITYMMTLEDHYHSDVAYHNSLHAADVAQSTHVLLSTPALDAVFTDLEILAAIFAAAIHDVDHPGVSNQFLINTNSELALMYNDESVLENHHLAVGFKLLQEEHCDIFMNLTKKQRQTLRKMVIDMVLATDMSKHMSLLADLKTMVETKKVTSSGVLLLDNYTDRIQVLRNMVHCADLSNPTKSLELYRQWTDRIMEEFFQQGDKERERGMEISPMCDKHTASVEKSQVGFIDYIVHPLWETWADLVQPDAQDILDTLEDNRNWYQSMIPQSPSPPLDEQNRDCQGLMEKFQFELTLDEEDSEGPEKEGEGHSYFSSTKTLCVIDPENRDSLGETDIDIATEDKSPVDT
T1 sequence (O00408 whole entry): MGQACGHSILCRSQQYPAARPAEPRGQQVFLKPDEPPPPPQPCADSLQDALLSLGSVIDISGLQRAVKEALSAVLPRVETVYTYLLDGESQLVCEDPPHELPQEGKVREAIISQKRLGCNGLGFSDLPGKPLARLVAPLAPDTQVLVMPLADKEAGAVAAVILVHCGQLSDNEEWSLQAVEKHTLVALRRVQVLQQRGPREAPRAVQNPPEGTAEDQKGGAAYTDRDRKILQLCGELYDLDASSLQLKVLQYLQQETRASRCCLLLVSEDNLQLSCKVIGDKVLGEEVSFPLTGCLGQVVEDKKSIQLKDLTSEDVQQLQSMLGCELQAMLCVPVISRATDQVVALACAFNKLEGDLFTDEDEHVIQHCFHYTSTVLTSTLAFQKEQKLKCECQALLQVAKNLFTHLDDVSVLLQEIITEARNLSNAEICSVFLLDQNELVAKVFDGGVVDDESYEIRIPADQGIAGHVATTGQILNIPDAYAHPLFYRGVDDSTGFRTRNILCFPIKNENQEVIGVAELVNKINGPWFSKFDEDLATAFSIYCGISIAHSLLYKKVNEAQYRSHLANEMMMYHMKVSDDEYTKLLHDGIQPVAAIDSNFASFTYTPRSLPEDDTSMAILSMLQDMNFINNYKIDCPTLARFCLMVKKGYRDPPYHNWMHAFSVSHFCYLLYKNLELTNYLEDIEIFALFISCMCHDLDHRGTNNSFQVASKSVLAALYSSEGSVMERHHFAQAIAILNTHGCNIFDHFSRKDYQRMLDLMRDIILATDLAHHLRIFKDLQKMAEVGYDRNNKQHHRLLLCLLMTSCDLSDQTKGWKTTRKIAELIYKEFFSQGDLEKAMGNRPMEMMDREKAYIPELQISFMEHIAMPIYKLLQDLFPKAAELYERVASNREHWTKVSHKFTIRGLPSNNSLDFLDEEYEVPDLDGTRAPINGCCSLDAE

Take `COc1ccc(-c2cc(=O)c3c(OC)c(OC)c(OC)c(OC)c3o2)cc1OC` [nobiletin]: the IC50 is 9.91 µM against PDE2A; no more than 6.03 µM against PDE4A1A (IC50, PDE4A1A, bound stated in the discussion); 5.23 µM on PDE4A1A (IC50 Dose, PDE4A1A, duplicate); no more than 6.03 µM against PDE4B1 (IC50, PDE4B1, bound stated in the discussion); 6.03 µM against PDE4B1 (IC50 Dose, PDE4B1, duplicate). Also, the “amplitude of PER2::LUC rhythm vs control” value in assay [1] (kidney, liver and submandibular gland (all three tissues), treatment at ZT16) was “increased”; in assay [1] (kidney, treatment at ZT0 or 4), “decreased”; in assay [1] (liver, treatment at ZT12) it was “decreased”. Further, the “phase of PER2::LUC rhythm vs control” value was “phase advancement” in assay [1] (kidney, administration at ZT4); “phase delay” in assay [1] (kidney, treatment at ZT20); “phase-advanced” in assay [1] (liver, treatment at ZT12); “phase advancement” in assay [1] (submandibular gland, administration at ZT4).

(Values after paper PMC11123956, “Nobiletin Stimulates Adrenal Hormones and Modulates the Circadian Clock in Mice” (Nutrients, 2024).)
